The results in this text go back to patent publication US6596719B1 (Actelio Pharmaceuticals Ltd., priority 1999, dated 2003).

As a reminder, the IC50 is the concentration that inhibits the measured activity by half.

SMILES strings stand for the structures. Where two headings read alike, the source gives them in different places.

In one assay the target is T1, ETB receptors (Rattus norvegicus, UniProt P21451).
T1 sequence (P21451 27-442): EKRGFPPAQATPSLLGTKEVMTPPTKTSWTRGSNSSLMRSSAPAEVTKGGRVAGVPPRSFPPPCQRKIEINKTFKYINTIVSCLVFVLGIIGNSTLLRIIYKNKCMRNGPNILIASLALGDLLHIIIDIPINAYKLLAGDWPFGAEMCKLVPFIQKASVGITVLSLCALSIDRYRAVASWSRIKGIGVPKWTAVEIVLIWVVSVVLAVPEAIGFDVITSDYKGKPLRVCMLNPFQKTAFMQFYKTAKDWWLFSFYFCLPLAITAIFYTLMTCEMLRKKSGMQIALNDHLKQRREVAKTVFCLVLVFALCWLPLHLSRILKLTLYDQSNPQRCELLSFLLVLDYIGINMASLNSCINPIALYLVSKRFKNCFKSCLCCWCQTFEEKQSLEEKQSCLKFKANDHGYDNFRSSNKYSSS
The experiment in a line: Inhibition of sarafotoxin S6c-induced contractions on isolated rat tracheal rings. The settings on record: for pA2 value ETB: rat tracheal rings, contraction induced by sarafotoxin S6c, 10 min incubation.

A further assay addresses T2, ETA receptors (Rattus norvegicus, UniProt P26684).
T2 sequence (P26684 21-426): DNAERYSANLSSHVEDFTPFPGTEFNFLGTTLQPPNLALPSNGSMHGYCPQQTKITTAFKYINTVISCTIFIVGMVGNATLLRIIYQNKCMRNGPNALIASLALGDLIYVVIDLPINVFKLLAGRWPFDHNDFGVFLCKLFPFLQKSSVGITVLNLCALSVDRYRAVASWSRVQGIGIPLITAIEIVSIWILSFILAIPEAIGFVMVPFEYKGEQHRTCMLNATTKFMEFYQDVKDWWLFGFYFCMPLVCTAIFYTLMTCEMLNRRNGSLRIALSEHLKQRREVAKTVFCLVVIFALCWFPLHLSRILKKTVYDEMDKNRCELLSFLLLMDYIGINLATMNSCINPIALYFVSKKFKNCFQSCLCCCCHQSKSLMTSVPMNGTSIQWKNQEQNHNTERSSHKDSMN
The experiment in a line: Inhibition of endothelin-1-induced contractions on isolated rat aortic rings. The settings on record: for pA2 value ETA: rat aortic rings, contraction induced by endothelin-1, 10 min incubation.

Assay [1] concerns the target T3, human recombinant ETB receptors (Homo sapiens, UniProt P24530).
T3 construct: expressed in transfected cells; host or cells: CHO cells (microsomal membranes)
T3 sequence (P24530 27-442): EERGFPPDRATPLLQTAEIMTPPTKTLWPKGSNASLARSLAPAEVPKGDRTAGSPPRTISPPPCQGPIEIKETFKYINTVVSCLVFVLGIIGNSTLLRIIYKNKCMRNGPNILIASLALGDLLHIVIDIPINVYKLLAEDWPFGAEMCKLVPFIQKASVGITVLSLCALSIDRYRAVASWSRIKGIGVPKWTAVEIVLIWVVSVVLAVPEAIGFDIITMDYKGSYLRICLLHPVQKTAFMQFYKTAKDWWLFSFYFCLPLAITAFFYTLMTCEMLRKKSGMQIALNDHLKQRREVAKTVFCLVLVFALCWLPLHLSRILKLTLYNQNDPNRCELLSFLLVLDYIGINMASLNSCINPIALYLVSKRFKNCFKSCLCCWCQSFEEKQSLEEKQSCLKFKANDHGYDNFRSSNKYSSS
The experiment in a line: Inhibition of endothelin binding to membranes from CHO cells carrying human ET receptors (ETB).

The target in assay [2] is T4, human recombinant ETA receptors (Homo sapiens, UniProt P25101).
T4 construct: expressed in transfected cells; host or cells: CHO cells (microsomal membranes)
T4 sequence (P25101 21-427): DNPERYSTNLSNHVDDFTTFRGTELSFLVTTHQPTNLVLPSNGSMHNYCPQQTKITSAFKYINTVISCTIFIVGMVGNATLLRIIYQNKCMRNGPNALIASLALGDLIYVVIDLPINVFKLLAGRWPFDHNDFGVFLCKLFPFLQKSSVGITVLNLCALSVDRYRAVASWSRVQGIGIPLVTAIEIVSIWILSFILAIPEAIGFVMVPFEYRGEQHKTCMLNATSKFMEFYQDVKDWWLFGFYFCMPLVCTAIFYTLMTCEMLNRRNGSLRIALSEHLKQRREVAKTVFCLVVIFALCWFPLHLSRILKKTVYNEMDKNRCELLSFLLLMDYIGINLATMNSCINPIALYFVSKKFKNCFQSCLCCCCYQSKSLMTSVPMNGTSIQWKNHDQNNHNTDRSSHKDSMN
The experiment in a line: Inhibition of endothelin binding to membranes from CHO cells carrying human ET receptors (ETA).

Where [3] appears, read: membranes of CHO cells expressing human recombinant ETA receptors, 8 pM [125I]ET-1, 2 h at 20° C.

Turning to `COc1ccccc1Oc1c(NS(=O)(=O)c2ccc(C(C)(C)C)cc2)nc(-c2ncccn2)nc1OCCNS(=O)(=O)c1cccs1` [Example 7, p-tert.-butyl-N-[6-(ethoxy-2-(2-thiophenesulfonamido))-5-(o-methoxyphenoxy)-2-(2-pyrimidinyl)-4-pyrimidinyl]benzene-sulfonamide], on ETB receptors, the “pA2 value ETB” value was determined as 7.15. The “pA2 value ETA” value at ETA receptors came out at 6.08. The IC50 in assay [1] was determined as 15.8 nM; in assay [2] (setting [3]) it was 63.6 nM.
For `COc1ccccc1Oc1c(NS(=O)(=O)c2ccc(C(C)C)cn2)nc(-c2ccncc2)nc1OCCNS(=O)(=O)C(C)C` [Example 10, 5-i.-propyl-N-[6-(ethoxy-2-(2-propanesulfonamido))-5-(o-methoxyphenoxy)-2-(4-pyridyl)-4-pyrimidinyl]pyridine-2-sulfonamide], the Kb on ETB receptors is 1260 nM; at ETA receptors it was 186 nM. The IC50 in assay [1] amounted to 193 nM; in assay [2] it was 67.2 nM.
The corresponding values for `COc1ccccc1Oc1c(NS(=O)(=O)c2ccc(C(C)C)cn2)nc(-c2ccncc2)nc1OCCNS(=O)(=O)c1ccc(C)cc1` [Example 12] are 513 nM, 851 nM, 73.3 nM and 2120 nM.
For `CCCS(=O)(=O)NCCOc1nc(-c2cc(OC)c(OC)c(OC)c2)nc(NS(=O)(=O)c2ccc(C(C)C)cn2)c1Oc1ccccc1OC` [Example 16, 5-i.-propyl-N-[6-(ethoxy-2-(1-propanesulfonamido))-5-(o-methoxyphenoxy)-2-(3,4,5-trimethoxyphenyl)-4-pyrimidinyl]pyridine-2-sulfonamide], the Kb at ETB receptors is 34.7 nM; on ETA receptors it was over 3160 nM. The IC50 in assay [1] amounted to 24.5 nM; in assay [2] (setting [3]), 261 nM.
Consider `CCS(=O)(=O)NCCOc1nc(C(F)(F)F)nc(NS(=O)(=O)c2ccc(C(C)C)cn2)c1Oc1ccccc1OC` [Example 55, 5-i.-propyl-N-[6-(2-(ethanesulfonylamino)-ethoxy)-5-(o-methoxyphenoxy)-2-trifluoromethyl-4-pyrimidinyl]pyridine-2-sulfonamide], for which the “pA2 value ETB” value on ETB receptors was 6.3. Further, the “pA2 value ETA” value on ETA receptors is listed as 6.2.
`CCCS(=O)(=O)NCCOc1nc(N2CCOCC2)nc(NS(=O)(=O)c2ccc(C)cn2)c1Oc1ccccc1OC` [Example 59, 5-methyl-N-[6-(2-(1-propanesulfonylamino)-ethoxy)-5-(o-methoxyphenoxy)-2-(N-morpholino)-4-pyrimidinyl]-2-pyridine sulfonamide]: at ETB receptors, the “pA2 value ETB” value was determined as 5.58. Moreover, the “pA2 value ETA” value on ETA receptors is given as 6.61. In addition, the IC50 in assay [1] is 189 nM; in assay [2], 103 nM.
The corresponding values for `CCS(=O)(=O)NCCOc1nc(N2CCOCC2)nc(NS(=O)(=O)c2ccc(C(C)C)cn2)c1Oc1ccccc1OC` [Example 61, 5-isopropyl-N-[6-(2-(ethanesulfonylamino)-ethoxy)-5-(o-methoxyphenoxy)-2-(N-morpholino)-4-pyrimidinyl]-2-pyridine sulfonamide] are 6.36, 7.02, 183 nM and 92 nM.
Take `CCS(=O)(=O)NCCOc1nc(-c2ncccn2)nc(NS(=O)(=O)c2ccc(C(C)C)cn2)c1Oc1ccccc1OC` [Example 70, 5-isopropyl-N-[6-(2-(ethanesulfonylamino)-ethoxy)-5-(o-methoxyphenoxy)-2-(2-pyrimidinyl)-4-pyrimidinyl]-2-pyridine sulfonamide]: at ETA receptors, the Kb is 891 nM. The IC50 is 2070 nM in assay [1] and 282 nM in assay [2].
For `CCS(=O)(=O)NCCCOc1nc(C2CC2)nc(NS(=O)(=O)c2ccc(C(C)(C)C)cc2)c1Oc1ccccc1OC` [Example 87], the “pA2 value ETA” value on ETA receptors was determined as 6.52. The IC50 in assay [1] (membranes of CHO cells expressing human recombinant ETB receptors, 8 pM [125I]ET-1, 2 h at 20° C.) stood at 33.1 nM; in assay [2] (setting [3]) it was 48.1 nM.
With `COc1ccccc1Oc1c(NS(=O)(=O)c2ccc(C(C)(C)C)cc2)nc(C2CC2)nc1OCCCNS(=O)(=O)c1cccs1` [Example 88, 4-tert.-butyl-N-[6-(3-(2-thiophenesulfonylamino)-propoxy)-5-(o-methoxyphenoxy)-2-cyclopropyl-4-pyrimidinyl]-benzene-sulfonamide], at ETB receptors, the “pA2 value ETB” value came out at 7.95. Also, the “pA2 value ETA” value on ETA receptors is listed as 6.16.
